Where no end group is shown, it is not given here.
Columns and labels:
[1] = tested on: smooth muscle of the human corpus cavernosum penis; assay: Functional organ bath studies: relaxation of norepinephrine-precontracted strip preparations of human cavernous muscles
Description: Functional organ bath studies:
Strip preparations of human cavernous muscles were fixed in the bath chambers of an organ bath plant (Isolated Organ Apparatus IOA 5306, Föhr Medical Instruments GmbH, Seeheim, Germany) filled with a modified Krebs-Ringer solution (NaCl 120 mM, NaHCO3 25.6 mM, KCl 4.7 mM, CaCl2 2.5 mM, NaH2PO4 1.2 mM, MgCl2 1.2 mM, glucose 22 mM, 2Na^+ (Ca^2+) EDTA 0.1 mM, pH 7.2-7.4). The temperature of the bath solution was controlled to 37° C., and a mixture of […] O2 and 5% CO2 was continuously sparkled through the solution. The application of a passive bias tension of 5 mN (0.5 g) was followed by an equilibration phase of 60 min. Subsequently, the muscle strips were stimulated with 6 μM norepinephrine (NOR). After a stable contraction plateau was reached, the peptides human atrial natriuretic peptide/cardiodilatin (ANP/CDD99-126) (for a survey, see Forssmann et al., 1998) and human C-type natriuretic peptide (CNP) (Ogawa et al., 1992), which are chemically synthesized in our laboratory, were added with cumulative dosage (0.01 to 1000 nM). Changes in the mechanical tension of the muscles were recorded with an analog-digital measured data acquisition system (MacLab®, AD Instruments, Castle Hill, Australia).

[2] = Tests made with male patients: induction of erection; type: in vivo, human; conditions: for erection / time for which the erection was maintained: male patients

Molecule: C-type natriuretic polypeptide (GLSKGCFGLKLDRIGSMSGLGC) [CNP, ligand of guanylate cyclase B]
- concentration from which a significant relaxant effect is seen ([1]; strips precontracted with 6 μM norepinephrine, cumulative dosage 0.01 to 1000 nM): 1 nM
- erection ([2]; intracavernous application): immediate erection
- time for which the erection was maintained ([2]; intracavernous application): about one
- erection ([2]; intravenous application): immediate erection
- time for which the erection was maintained ([2]; intravenous application): about one

Molecule: human atrial natriuretic peptide/cardiodilatin (SLRRSSCFGGRMDRIGAQSGLGCNSFRY; ends and bridges not checked; cysteine pairing not given here) [ANP/CDD99-126, Chemically synthesized peptide, the ligand of guanylate cyclase A, reference compound]
- relaxation of precontracted smooth muscle (in words) ([1]; at corresponding concentrations (1 nM to 1 μM), precontracted with 6 μM norepinephrine): no significant relaxation

Molecule: CCCc1nn(C)c2c(=O)[nH]c(-c3cc(S(=O)(=O)N4CCN(C)CC4)ccc3OCC)nc12 [Sildenafil, reference compound]
- necessary dose for the induction of an erection ([2]; combined, simultaneous application of CNP): significantly decreased
- side-effects (flickering in the eyes or headaches) ([2]; some subjects, combined application with CNP versus exclusive Sildenafil treatment): reduced, in part to complete disappearance

— patent US20020128176A1, “Treatment of erectile dysfunctions with C-Type natriuretic polypeptide (CNP) as a monotherapy or in combination with phosphodiesterase inhibitors” (priority 1999, published 2002)
